Results published in patent US20240199613A1 (TAKEDA PHARMACEUTICAL COMPANY LIMITED, priority 2021, published 2024).

Key:
[1] = target: human activated kallikrein enzyme (Homo sapiens, UniProt P03952); test: Inhibition of activated plasma kallikrein, fluorogenic peptide substrate (PFR-AMC) assay, 500 pM enzyme format; type: biochemical; conditions: 500 pM activated kallikrein, 300 uM PFR-AMC, 30 min preincubation, 10 min reaction, room temperature; read-out: Primary Dose Response Assay: Average EC50
In short: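 500 pM enzyme preincubated 30 min at room temperature with inhibitor in 20 mM Tris pH 7.5, 150 mM NaCl, 1 mM EDTA, 0.1% PEG-400, 0.1% Triton X-100. Reaction started with 300 uM PFR-AMC and run 10 min at room temperature. Fluorescence read at 380 nm excitation/460 nm emission.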

plasma kallikrein = target: T1, plasma kallikrein (Homo sapiens, UniProt P03952); test: Neat human plasma assay: contact pathway-activated (FXIIa) plasma, PFR-AMC substrate; type: biochemical; conditions: citrated human plasma (78% final), 10 nM human FXIIa, 100 μM PFR-AMC, room temperature
T1 construct: from tissue; host or cells: sodium citrate collected human plasma (78% final)
In short: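 Compounds spiked into citrated human or rat plasma (78% final), or plasma taken from orally or IV dosed rats, activated with 10 nM human FXIIa; 100 μM PFR-AMC cleavage read at 360/480 nm for 5 min, room temperature. Rates vs concentration fit to 4-parameter IC50/IC90 equation.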

T1 sequence (P03952 391-638 limits assumed): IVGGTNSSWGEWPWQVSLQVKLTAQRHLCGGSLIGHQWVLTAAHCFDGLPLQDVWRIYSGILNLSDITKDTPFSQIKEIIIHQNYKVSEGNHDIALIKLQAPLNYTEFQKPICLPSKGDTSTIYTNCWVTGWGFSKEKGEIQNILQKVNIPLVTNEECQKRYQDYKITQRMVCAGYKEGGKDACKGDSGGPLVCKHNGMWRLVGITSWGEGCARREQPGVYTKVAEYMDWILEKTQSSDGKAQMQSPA
T1 sequence (P03952 20-390 partner limits assumed): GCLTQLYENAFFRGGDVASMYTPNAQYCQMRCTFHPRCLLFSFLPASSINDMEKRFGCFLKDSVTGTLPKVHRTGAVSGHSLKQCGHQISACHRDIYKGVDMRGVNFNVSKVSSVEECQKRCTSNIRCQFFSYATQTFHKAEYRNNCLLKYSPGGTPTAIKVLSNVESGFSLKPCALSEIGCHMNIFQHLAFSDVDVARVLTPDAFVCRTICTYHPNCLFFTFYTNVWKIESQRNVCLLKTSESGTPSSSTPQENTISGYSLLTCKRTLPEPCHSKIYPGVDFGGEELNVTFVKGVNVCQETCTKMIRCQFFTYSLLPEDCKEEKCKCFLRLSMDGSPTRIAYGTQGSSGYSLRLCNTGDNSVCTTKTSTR
Chain of human activated kallikrein enzyme (P03952 391-638 limits assumed): as the sequence (P03952 391-638 limits assumed) above
Chain of human activated kallikrein enzyme (P03952 20-390 partner limits assumed): as the sequence (P03952 20-390 partner limits assumed) above

SMILES | EC50 [1] [nM] | IC90 (plasma kallikrein) [nM]
Cc1ccnc([C@H]2C[C@@H]2c2ccc3ccc(NCc4cn5cc(C6CC6)cc(N6CC(=O)N(C7COC7)C6=O)c5n4)cc3n2)n1 (racemic) [Example 78, rac-1-(6-cyclopropyl-2-(((2-((1S*,2S*)-2-(4-methylpyrimidin-2-yl)cyclopropyl)quinolin-7-yl)amino)methyl)imidazo[1,2-a]pyridin-8-yl)-3-(oxetan-3-yl)imidazolidine-2,4-dione] | ≤ 1 | 1500 to 10000
Cc1ccnc([C@H]2C[C@@H]2c2cc(N(C)S(C)(=O)=O)c3ccc(NCc4cn5cc(C6CC6)cc(N6CC(=O)N(C)C6=O)c5n4)cc3n2)n1 (racemic) [Example 34, rac-N-(7-(((6-cyclopropyl-8-(3-methyl-2,4-dioxoimidazolidin-1-yl)imidazo[1,2-a]pyridin-2-yl)methyl)amino)-2-((1S*,2S*)-2-(4-methylpyrimidin-2-yl)cyclopropyl)quinolin-4-yl)-N-methylmethanesulfonamide] | 1 to 10 | 1500 to 10000
Cc1ccnc([C@H]2C[C@@H]2c2cc(=O)c3ccc(NCc4cn5cc(C6CC6)cc(N6CC(=O)N(C)C6=O)c5n4)cc3[nH]2)n1 (racemic) [Example 11, rac-1-(6-cyclopropyl-2-(((2-((1S*,2S*)-2-(4-methylpyrimidin-2-yl)cyclopropyl)-4-oxo-1,4-dihydroquinolin-7-yl)amino)methyl)imidazo[1,2-a]pyridin-8-yl)-3-methylimidazolidine-2,4-dione] | ≤ 1 | 400 to 1500
Cc1ccnc(C2CC2c2cc(=O)c3ccc(NCc4cn5cc(C6CC6)cc(N6CC(=O)N(C)C6=O)c5n4)cc3[nH]2)n1 (single isomer, unassigned) [Example 13, 1-(6-cyclopropyl-2-(((2-(2-(4-methylpyrimidin-2-yl)cyclopropyl)-4-oxo-1,4-dihydroquinolin-7-yl)amino)methyl)imidazo[1,2-a]pyridin-8-yl)-3-methylimidazolidine-2,4-dione] | 1 to 10 | ≤ 400
COc1cc([C@H]2C[C@@H]2c2nccc(C)n2)nc2cc(N3C[C@@H](O)C[C@@H]3c3cn4cc(C5CC5)cc(N5CC(=O)N(C)C5=O)c4n3)ccc12 (relative stereo) [Example 67, rac-1-(6-cyclopropyl-2-((2R,4S)-4-hydroxy-1-(4-methoxy-2-((1S*,2S*)-2-(4-methylpyrimidin-2-yl)cyclopropyl)quinolin-7-yl)pyrrolidin-2-yl)imidazo[1,2-a]pyridin-8-yl)-3-methylimidazolidine-2,4-dione] | 1 to 10 | 400 to 1500
CNc1cc([C@H]2C[C@@H]2c2nccc(C)n2)nc2cc(NCc3cn4cc(C5CC5)cc(N5CC(=O)N(C)C5=O)c4n3)ccc12 (racemic) [Example 32, rac-1-(6-cyclopropyl-2-(((4-(methylamino)-2-((1S*,2S*)-2-(4-methylpyrimidin-2-yl)cyclopropyl)quinolin-7-yl)amino)methyl)imidazo[1,2-a]pyridin-8-yl)-3-methylimidazolidine-2,4-dione] | ≤ 1 | ≤ 400
Cc1ccnc([C@H]2C[C@@H]2C2=NS(=O)(=O)c3ccc(NCc4cn5cc(C6CC6)ccc5n4)cc3N2)n1 (racemic) [Example 64, rac-6-(((6-cyclopropylimidazo[1,2-a]pyridin-2-yl)methyl)amino)-3-((1S*,2S*)-2-(4-methylpyrimidin-2-yl)cyclopropyl)-4H-benzo[e][1,2,4]thiadiazine 1,1-dioxide] | ≤ 1 | 400 to 1500
Cc1ccnc([C@H]2C[C@@H]2c2cc(N(C)C)c3ccc(NCc4cn5cc(C6CC6)ccc5n4)cc3n2)n1 (racemic) [Example 1, rac-N^7-((6-cyclopropylimidazo[1,2-a]pyridin-2-yl)methyl)-N^4,N^4-dimethyl-2-((1S*,2S*)-2-(4-methylpyrimidin-2-yl)cyclopropyl)quinoline-4,7-diamine] | ≤ 1 | 400 to 1500
Cc1ccnc([C@H]2C[C@@H]2c2cc(-n3ccnc3)c3ccc(NCc4cn5cc(C6CC6)cc(N6CC(=O)N(C)C6=O)c5n4)cc3n2)n1 (racemic) [Example 25, rac-1-(2-(((4-(1H-imidazol-1-yl)-2-((1S*,2S*)-2-(4-methylpyrimidin-2-yl)cyclopropyl)quinolin-7-yl)amino)methyl)-6-cyclopropylimidazo[1,2-a]pyridin-8-yl)-3-methylimidazolidine-2,4-dione] | ≤ 1 | 1500 to 10000
Cc1ccnc([C@H]2C[C@@H]2C2=CS(=O)(=O)c3cnc(NCc4cn5cc(C6CC6)cc(N6CC(=O)N(C)C6=O)c5n4)cc3N2)n1 (racemic) [Example 79, rac-1-(6-cyclopropyl-2-(((2-((1S*,2S*)-2-(4-methylpyrimidin-2-yl)cyclopropyl)-4,4-dioxido-1H-pyrido[3,4-b][1,4]thiazin-7-yl)amino)methyl)imidazo[1,2-a]pyridin-8-yl)-3-methylimidazolidine-2,4-dione] | ≤ 1 | ≤ 400
CCN1CCN(c2cc(C3CC3)cn3cc(CNc4ccc5ccc([C@H]6C[C@@H]6c6nccc(C)n6)nc5c4)nc23)CC1 (racemic) [Example 74, rac-N-((6-cyclopropyl-8-(4-ethylpiperazin-1-yl)imidazo[1,2-a]pyridin-2-yl)methyl)-2-((1S*,2S*)-2-(4-methylpyrimidin-2-yl)cyclopropyl)quinolin-7-amine] | ≤ 1 | 1500 to 10000
Cc1ccnc([C@H]2C[C@@H]2c2cc(OC3COC3)c3ccc(NCc4cn5cc(C6CC6)cc(N6CC(=O)N(C)C6=O)c5n4)cc3n2)n1 (racemic) [Example 33, rac-1-(6-cyclopropyl-2-(((2-((1S*,2S*)-2-(4-methylpyrimidin-2-yl)cyclopropyl)-4-(oxetan-3-yloxy)quinolin-7-yl)amino)methyl)imidazo[1,2-a]pyridin-8-yl)-3-methylimidazolidine-2,4-dione] | ≤ 1 | 400 to 1500
Cc1ccnc([C@H]2C[C@@H]2c2cc(N3CC4(COC4)C3)c3ccc(NCc4cc5cc(C6CC6)cc(N6CC(=O)N(C)C6=O)n5n4)cc3n2)n1 [Example 107, 1-(5-cyclopropyl-2-(((2-((1S,2S)-2-(4-methylpyrimidin-2-yl)cyclopropyl)-4-(2-oxa-6-azaspiro[3.3]heptan-6-yl)quinolin-7-yl)amino)methyl)pyrazolo[1,5-a]pyridin-7-yl)-3-methylimidazolidine-2,4-dione] | ≤ 1 | ≤ 400
Cc1ccnc([C@H]2C[C@@H]2c2ccc3c(N(C)C)cc(NCc4cn5cc(C6CC6)cc(N6CC(=O)N(C)C6=O)c5n4)cc3n2)n1 (racemic) [Example 88, rac-1-(6-cyclopropyl-2-(((5-(dimethylamino)-2-((1S*,2S*)-2-(4-methylpyrimidin-2-yl)cyclopropyl)quinolin-7-yl)amino)methyl)imidazo[1,2-a]pyridin-8-yl)-3-methylimidazolidine-2,4-dione] | ≤ 1 | 400 to 1500
Oc1cc([C@H]2C[C@@H]2c2cccc(Cl)c2)nc2cc(NCc3cn4cc(C5CC5)ccc4n3)ccc12 [Example 51, 2-((1S,2S)-2-(3-chlorophenyl)cyclopropyl)-7-(((6-cyclopropylimidazo[1,2-a]pyridin-2-yl)methyl)amino)quinolin-4-ol] | 1 to 10 | 1500 to 10000
CN1C(=O)CN(c2cc(C3CC3)cn3cc(CNc4ccc5c(=O)cc([C@H]6C[C@@H]6c6cccc(Cl)c6)[nH]c5c4)nc23)C1=O (racemic) [Example 5, rac-1-(2-(((2-((1S*,2S*)-2-(3-chlorophenyl)cyclopropyl)-4-oxo-1,4-dihydroquinolin-7-yl)amino)methyl)-6-cyclopropylimidazo[1,2-a]pyridin-8-yl)-3-methylimidazolidine-2,4-dione] | 1 to 10 | 1500 to 10000
Cc1ccnc([C@H]2C[C@@H]2c2cc(OC3CCN(C)CC3)c3ccc(NCc4cn5cc(C6CC6)cc(N6CC(=O)N(C)C6=O)c5n4)cc3n2)n1 (racemic) [Example 35, rac-1-(6-cyclopropyl-2-(((4-((1-methylpiperidin-4-yl)oxy)-2-((1S*,2S*)-2-(4-methylpyrimidin-2-yl)cyclopropyl)quinolin-7-yl)amino)methyl)imidazo[1,2-a]pyridin-8-yl)-3-methylimidazolidine-2,4-dione] | ≤ 1 | ≤ 400
Cc1ccnc([C@H]2C[C@@H]2c2cc(-n3cncn3)c3ccc(NCc4cn5cc(C6CC6)cc(N6CC(=O)N(C)C6=O)c5n4)cc3n2)n1 (racemic) [Example 26, rac-1-(6-cyclopropyl-2-(((2-((1S*,2S*)-2-(4-methylpyrimidin-2-yl)cyclopropyl)-4-(1H-1,2,4-triazol-1-yl)quinolin-7-yl)amino)methyl)imidazo[1,2-a]pyridin-8-yl)-3-methylimidazolidine-2,4-dione] | 1 to 10 | 1500 to 10000
Cc1ccnc([C@H]2C[C@@H]2c2cc(O)c3cnc(NCc4cn5cc(C6CC6)cc(N6CC(=O)N(C)C6=O)c5n4)nc3n2)n1 (racemic) [Example 86, rac-1-(6-cyclopropyl-2-(((5-hydroxy-7-((1S*,2S*)-2-(4-methylpyrimidin-2-yl)cyclopropyl)pyrido[2,3-d]pyrimidin-2-yl)amino)methyl)imidazo[1,2-a]pyridin-8-yl)-3-methylimidazolidine-2,4-dione] | ≤ 1 | 1500 to 10000
